According to ChEMBL document CHEMBL1151820, “Antagonists of the P2X(7) receptor. From lead identification to drug development” (J Med Chem, 2009):

Columns and labels:
[1] = molecular target: T1, P2X purinoceptor 7 (Homo sapiens) (UniProt Q99572); assay: Inhibition of human P2X7 receptor in human PBMC assessed as inhibition of BzATP-induced IL1-beta release at 0.3 uM
T1 sequence (whole entry): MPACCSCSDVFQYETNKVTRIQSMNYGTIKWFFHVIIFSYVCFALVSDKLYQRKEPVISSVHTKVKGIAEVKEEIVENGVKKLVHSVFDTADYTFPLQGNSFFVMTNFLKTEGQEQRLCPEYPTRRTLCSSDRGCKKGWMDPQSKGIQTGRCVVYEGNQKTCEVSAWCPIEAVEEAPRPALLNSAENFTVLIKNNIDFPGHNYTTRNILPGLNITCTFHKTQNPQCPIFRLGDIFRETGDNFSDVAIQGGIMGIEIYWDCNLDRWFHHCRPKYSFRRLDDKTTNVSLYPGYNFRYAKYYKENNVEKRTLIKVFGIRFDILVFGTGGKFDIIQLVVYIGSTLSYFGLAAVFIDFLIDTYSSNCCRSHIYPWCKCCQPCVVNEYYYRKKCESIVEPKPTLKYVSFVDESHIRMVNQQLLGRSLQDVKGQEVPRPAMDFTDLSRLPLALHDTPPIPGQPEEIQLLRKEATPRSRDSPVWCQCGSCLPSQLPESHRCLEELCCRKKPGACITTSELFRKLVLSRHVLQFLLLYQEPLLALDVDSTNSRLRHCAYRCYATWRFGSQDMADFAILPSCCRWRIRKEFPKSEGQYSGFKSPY

P2X purinoceptor 7 [2] = molecular target: T2, P2X purinoceptor 7 (Homo sapiens, UniProt Q99572); assay: Antagonist activity at human P2X7 receptor expressed in HEK293 cells assessed as inhibition of BzATP-induced calcium influx; type: functional, cell-based
T2 sequence (Q99572 whole entry): T1 sequence (whole entry)

P2X purinoceptor 7 [3] = molecular target: T2, P2X purinoceptor 7; assay: Antagonist activity at P2X7 receptor in human lymphocytes assessed as inhibition of ATP-induced Ba2+ influx; type: functional, cell-based
[4] = molecular target: T1, P2X purinoceptor 7 (Homo sapiens); details: HEK293, at 3 µM
P2X purinoceptor 7 [5] = molecular target: T2, P2X purinoceptor 7; assay: Antagonist activity at P2X7 receptor in human THP1 cells assessed as inhibition of BzATP-induced ethidium uptake; type: functional, cell-based, THP-1
Mus musculus = assay: In vivo receptor activity at P2X7 receptor in mouse model assessed as ATP-induced IL1-beta release; type: functional
P2X purinoceptor 7 [6] = molecular target: T2, P2X purinoceptor 7; assay: Antagonist activity at human P2X7 receptor expressed in human U373 cells assessed as inhibition of BzATP-induced Yo-Pro uptake; type: functional, cell-based, U-373MG ATCC
P2X purinoceptor 7 [7] = molecular target: T2, P2X purinoceptor 7; assay: Inhibition of human P2X7 receptor assessed as inhibition of BzATP-induced IL1-beta release
P2X purinoceptor 7 [8] = molecular target: T2, P2X purinoceptor 7; assay: Antagonist activity at P2X7 receptor in human THP1 cells assessed as effect on BzATP-induced Yo-Pro uptake; type: functional, cell-based, THP-1
P2X purinoceptor 7 [9] = molecular target: T3, P2X purinoceptor 7 (Rattus norvegicus, UniProt Q64663); assay: Activity at rat P2X7 receptor expressed in HEK cells assessed as effect on BzATP-induced ethidium uptake; type: cell-based, HEK293
T3 sequence (Q64663 whole entry): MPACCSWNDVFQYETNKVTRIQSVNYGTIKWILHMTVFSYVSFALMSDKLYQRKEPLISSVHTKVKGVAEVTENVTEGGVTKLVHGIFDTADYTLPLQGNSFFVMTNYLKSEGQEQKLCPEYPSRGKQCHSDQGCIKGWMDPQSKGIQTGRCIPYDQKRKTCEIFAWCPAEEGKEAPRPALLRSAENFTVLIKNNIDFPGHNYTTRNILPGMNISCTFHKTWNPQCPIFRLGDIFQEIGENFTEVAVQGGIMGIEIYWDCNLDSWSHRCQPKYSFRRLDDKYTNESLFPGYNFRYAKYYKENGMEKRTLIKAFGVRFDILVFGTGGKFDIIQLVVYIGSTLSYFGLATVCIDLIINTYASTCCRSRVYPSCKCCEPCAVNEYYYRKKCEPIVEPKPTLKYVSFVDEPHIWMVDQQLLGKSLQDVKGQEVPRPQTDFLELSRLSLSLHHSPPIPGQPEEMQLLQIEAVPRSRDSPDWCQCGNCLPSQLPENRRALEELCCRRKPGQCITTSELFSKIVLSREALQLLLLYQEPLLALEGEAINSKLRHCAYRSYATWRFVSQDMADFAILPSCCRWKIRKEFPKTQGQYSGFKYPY

[10] = Plasma clearance in rat; type: ADME, organism-based
[11] = Bioavailability in rat; type: ADME, organism-based; details: in vivo
[12] = Half life in rat; type: ADME, organism-based; details: in vivo
[13] = Volume of distribution at steady state in rat; type: ADME, organism-based; details: in vivo, read-out: Vdss
[14] = Half life in ip dosed rat; type: ADME, organism-based; details: in vivo
[15] = Metabolic stability in human liver microsomes assessed as half life; type: ADME, Microsome
[16] = Oral bioavailability in rat; type: ADME, organism-based; details: in vivo
P2X purinoceptor 7 [17] = molecular target: T2, P2X purinoceptor 7; assay: Antagonist activity at human P2X7 receptor expressed in HEK293 cells assessed as inhibition of ATP-induced ethidium uptake
Rattus norvegicus [18] = assay: Analgesic activity in po dosed rat model of joint pain assessed as inhibition of FCA-induced weight bearing capacity administered twice daily for 5 days; type: functional; details: 120 h
Rattus norvegicus [19] = assay: Antiinflammatory activity in po dosed rat acute inflammatory pain model assessed as inhibition of FCA-induced weight bearing capacity; type: functional
Rattus norvegicus [20] = assay: Antinociceptive activity in ip dosed rat Chung model of neuropathic pain; type: functional

Compound: CC(C)(C)OC(=O)NCC(=O)N1CCc2c(ncnc2NCC(O)C23CC4CC(CC(C4)C2)C3)C1 (stereo not drawn)
- inhibition [1]: > 75%

Compound: CN([C@@H](Cc1ccc(OS(=O)(=O)c2cccc3cnccc23)cc1)C(=O)N1CCN(c2cccc(Cl)c2)CC1)S(=O)(=O)c1cccc2cnccc12
- IC50 (P2X purinoceptor 7 [2]): 12.6 nM

Compound: CN([C@@H](Cc1ccc(OS(=O)(=O)c2cccc3cnccc23)cc1)C(=O)N1CCN(c2ccccc2)CC1)S(=O)(=O)c1cccc2cnccc12
- IC50 (P2X purinoceptor 7 [3]): 12.6 nM
- inhibition [4]: 85%
- IC50 (P2X purinoceptor 7 [2]): 50.1 nM

Compound: COc1cccc(NC(=O)c2cccc(Cc3c(C)nn(CCO)c3-c3ccccc3)c2)c1
- IC50 (P2X purinoceptor 7 [2]): ≤ 200 nM

Compound: O=C(NCC1(O)CCCCCC1)c1cc(-n2ncc(=O)[nH]c2=O)ccc1Cl
- IC50 (P2X purinoceptor 7 [5]): 100 nM
- ED50 (Mus musculus): 2 mg/kg

Compound: COc1ccc(CCC2=N[C@H](c3ccccc3)[C@H](c3ccccc3)N2)cc1
- IC50 (P2X purinoceptor 7 [6]): > 3160 nM

Compound: Fc1cccc(CNC2=N[C@@H](c3cccc(F)c3)[C@@H](c3cccc(F)c3)N2)c1
- IC50 (P2X purinoceptor 7 [7]): 1260 nM
- IC50 (P2X purinoceptor 7 [6]): 63.1 nM

Compound: Cc1ccccc1N1CCN(C(=O)[C@H](Cc2ccc(OS(=O)(=O)c3cccc4cnccc34)cc2)N(C)S(=O)(=O)c2cccc3cnccc23)CC1
- IC50 (P2X purinoceptor 7 [2]): 15.8 nM

Compound: Fc1cccc(CSC2=N[C@@H](c3ccccc3)[C@@H](c3ccccc3)N2)c1
- IC50 (P2X purinoceptor 7 [6]): 200 nM

Compound: O=C(NCC1(O)CCCCCC1)c1cc(-c2cc[nH]n2)ccc1Cl
- IC50 (P2X purinoceptor 7 [8]): 200 nM

Compound: Clc1cccc(-n2cnnc2NCc2cccnc2N2CCCC2)c1Cl
- IC50 (P2X purinoceptor 7 [5]): 15.8 nM
- IC50 (P2X purinoceptor 7 [9]): 12.6 nM

Compound: Cc1ccccc1Nc1ncnn1-c1cccc(Cl)c1Cl
- IC50 (P2X purinoceptor 7 [5]): 20 nM
- IC50 (P2X purinoceptor 7 [9]): 251 nM

Compound: O=C(NCCc1ccccc1Cl)c1cc(-n2ncc(=O)[nH]c2=O)ccc1Cl
- IC50 (P2X purinoceptor 7 [5]): 316 nM
- clearance [10]: 9 mL/min/kg
- bioavailability [11]: 44%
- half-life [12]: 3 h
- ED50 (Mus musculus): 20 mg/kg
- Vd [13]: 0.3 L/kg

Compound: Clc1cccc(-c2nnnn2Cc2cccnc2)c1Cl
- half-life [14]: 1 h

Compound: C[C@H](CO)n1ccc2c(NC(=O)Cc3ccc(Cl)c(C(F)(F)F)c3)cccc2c1=O
- IC50 (P2X purinoceptor 7 [5]): 1.26 nM
- half-life [15]: 1 h
- bioavailability [16]: 25%

Compound: Cc1ccc(-c2ccc(Cl)c(C(=O)NCC3(O)CCCC(C)(C)C3)c2)nc1 (stereo not drawn)
- IC50 (P2X purinoceptor 7 [8]): 10 nM

Compound: Cc1n[nH]c(C)c1CC(=O)NCc1ccc(F)c(C(F)(F)F)c1
- IC50 (P2X purinoceptor 7 [17]): < 3160 nM
- pIC50 (P2X purinoceptor 7 [2]; hek293): > 4.7

Compound: O=C(CNS(=O)(=O)c1cccc2cnccc12)N1CCN(c2ccc(F)cc2)CC1
- IC50 (P2X purinoceptor 7 [2]): 63.1 nM

Compound: Fc1ccc(CC2=N[C@H](c3ccccc3)[C@H](c3ccccc3)N2)cc1
- IC50 (P2X purinoceptor 7 [6]): 79.4 nM

Compound: CN1C(=O)CCC1C(=O)NCc1cccc(C(F)(F)F)c1Cl (stereo not drawn)
- ED50 (Rattus norvegicus [18]): < 20 mg/kg
- ED50 (Rattus norvegicus [19]): < 20 mg/kg

Compound: Cc1cc(-c2ccc(Cl)c(C(=O)NCC3(O)CCCCCC3)c2)nn1CC(=O)NCCN(C)C
- IC50 (P2X purinoceptor 7 [8]): 3.16 nM

Compound: Cc1ccc2c(=O)n([C@H](C)CO)ccc2c1NC(=O)Cc1ccc(C(F)(F)F)c(F)c1
- half-life [15]: 1.5 h
- bioavailability [16]: 25%

Compound: c1ccc(CCCC2=N[C@H](c3ccccc3)[C@H](c3ccccc3)N2)cc1
- IC50 (P2X purinoceptor 7 [6]): 501 nM

Compound: Cc1ccccc1CCC1=N[C@H](c2ccccc2)[C@H](c2ccccc2)N1
- IC50 (P2X purinoceptor 7 [6]): 63.1 nM

Compound: Cc1ccccc1Cn1cnnc1-c1cccc(Cl)c1Cl
- IC50 (P2X purinoceptor 7 [5]): 79.4 nM
- IC50 (P2X purinoceptor 7 [9]): 200 nM
- Efficacy (Rattus norvegicus [20]): 68%
